# Test results from patent US11076595B2, “1-(n,n-disubstituted carbamoyl) 4-(substituted sulfonyl)triazolin-5-one derivative, 4-(n,n-disubstituted carbamoyl) 1-(substituted sulfonyl)triazolin-5-one derivative, and herbicide containing said derivative as active ingredient” (HOKKO CHEMICAL INDUSTRY CO., LTD., priority 2017, dated 2021).
# Tests used:
# Type in all cases: in vivo
# Echinochloa crus-galli [1] = experiment: Test Example 12: herbicidal effect test by treatment during growing period in paddy field; conditions: 120 g/10a; treatment seven days after sowing in flooded paddy pot; assessed 14 days after treatment
# Method in brief: (§1)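 Puddled paddy soil in Wagner pots, 30 seeds per species sown 0-1 cm deep, flooded to about 3 cm in a greenhouse. Seven days after sowing, water-diluted emulsifiable concentrate was dripped in at 120 g active ingredient per 10 are. Suppression (%) from dry weight versus untreated at 14 days, two replicates.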
# Lindernia pyxidaria [2] = experiment: as above; conditions: 120 g/10a; treatment seven days after sowing in flooded paddy pot; assessed 14 days after treatment
# Method in brief: as §1
# Scirpus juncoides [3] = experiment: as above; conditions: 120 g/10a; treatment seven days after sowing in flooded paddy pot; assessed 14 days after treatment
# Method in brief: as §1
# Monochoria vaginalis [4] = experiment: as above; conditions: 120 g/10a; treatment seven days after sowing in flooded paddy pot; assessed 14 days after treatment
# Method in brief: as §1
# Echinochloa crus-galli [5] = experiment: Test Example 13: herbicidal effect test by soil treatment in upland field; conditions: 120 g/10a, 14 days after treatment
# Description: (§2) A pot having a size of 36 cm^2 was filled with field soil (alluvial soil) and after mixing the soil of the surface layer of 1 cm with 20 grains of each weed seed of crabgrass, Echinochloa crus-galli, Chenopodium album and Amaranthus viridis, the surface layer was pressed lightly. One day after the sowing, an emulsifiable concentrate prepared according to Formulation Example 15 by using the compound shown in Table 11 below was diluted with water, and the water-diluted formulation was sprayed on the soil surface at a ratio of 100 liter per 10 are. The application rate of the active ingredient, by conversion, corresponded to 120 g per 10 are. Fourteen Days after the formulation treatment, the herbicidal effect was evaluated by the same criteria as in Test Example 11.
# crabgrass = experiment: as above; conditions: 120 g/10a, 14 days after treatment
# Description: as §2
# Chenopodium album = experiment: as above; conditions: 120 g/10a, 14 days after treatment
# Description: as §2
# Amaranthus viridis = experiment: as above; conditions: 120 g/10a, 14 days after treatment
# Description: as §2
# Echinochloa crus-galli [6] = experiment: Test Example 11: herbicidal effect test by soil treatment in paddy field; conditions: 120 g/10a active ingredient, 14 days after treatment
# Method in brief: (§3)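 Seeds were sown 0-1 cm deep in puddled, fertilised paddy soil in Wagner pots and kept under about 3 cm of flooding in a greenhouse. Diluted emulsifiable concentrate was added dropwise right after sowing at 120 g a.i. per 10 are. Suppression (%) came from dry weight versus untreated pots after 14 days, two replicates.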
# Lindernia pyxidaria [7] = experiment: as above; conditions: 120 g/10a active ingredient, 14 days after treatment
# Method in brief: as §3
# Scirpus juncoides [8] = experiment: as above; conditions: 120 g/10a active ingredient, 14 days after treatment
# Method in brief: as §3
# Monochoria vaginalis [9] = experiment: as above; conditions: 120 g/10a active ingredient, 14 days after treatment
# Method in brief: as §3
SMILES,Weed suppression rate (%) Echinochloa crus-galli (Echinochloa crus-galli [1]) [%],Weed suppression rate (%) Lindemia pyxidaria (Lindernia pyxidaria [2]) [%],Weed suppression rate (%) Scirpus juncoides (Scirpus juncoides [3]) [%],Weed suppression rate (%) Monochoria vaginalis (Monochoria vaginalis [4]) [%],"herbicidal effect, Echinochloa crus-galli (Echinochloa crus-galli [5]) [%]","herbicidal effect, Crabgrass (crabgrass) [%]","herbicidal effect, Chenopodium album (Chenopodium album) [%]","herbicidal effect, Amaranthus viridis (Amaranthus viridis) [%]",Weed suppression rate (%) Echinochloa crus-galli (Echinochloa crus-galli [6]) [%],Weed suppression rate (%) Lindemia pyxidaria (Lindernia pyxidaria [7]) [%],Weed suppression rate (%) Scirpus juncoides (Scirpus juncoides [8]) [%],Weed suppression rate (%) Monochoria vaginalis (Monochoria vaginalis [9]) [%]
CC(C)N(C(=O)n1cnn(S(=O)(=O)c2c(F)c(F)c(F)c(F)c2F)c1=O)c1ccc(F)cc1Cl [Compound 11-818],100,80,100,100,100,100,60,60,100,100,100,100
CC(C)N(C(=O)n1cnn(S(=O)(=O)c2ccccc2)c1=O)c1ccc(F)cc1 [Compound 11-358],90,80,90,80,80,90,80,90,90,80,90,80
CC(C)N(C(=O)n1cnn(S(=O)(=O)C2CC2)c1=O)c1ccc(C#N)cc1Cl [Compound 11-222],90,80,90,80,80,90,80,90,90,80,90,80
CC(C)N(C(=O)n1cnn(S(=O)(=O)c2ccccc2F)c1=O)c1c(F)cc(F)cc1F [Compound 11-406],100,70,80,80,100,90,30,30,100,100,80,80
CCN(CC)C(=O)n1cnn(S(=O)(=O)c2ccccc2C(F)(F)F)c1=O [Compound 11-710],80,40,40,40,100,80,60,40,70,40,40,40
CC(C)N(C(=O)n1cnn(S(=O)(=O)c2cccs2)c1=O)c1cccc(F)c1F [Compound 11-1021],100,80,100,90,90,100,70,70,100,100,100,100
CCN(CC)C(=O)n1cnn(S(=O)(=O)c2cccc(Cl)c2)c1=O [Compound 11-538],70,70,70,70,80,60,40,40,50,40,40,40
Cc1cc(F)ccc1N(C(=O)n1cnn(S(=O)(=O)c2ccc(F)cc2)c1=O)C(C)C [Compound 11-488],100,100,80,100,60,70,60,60,100,100,100,80
CC(C)N(C(=O)n1cnn(S(=O)(=O)c2cccc(Cl)c2)c1=O)c1ccc(F)cc1F [Compound 11-550],70,90,80,90,90,90,0,0,90,90,80,80
CC(C)N(C(=O)n1cnn(S(=O)(=O)c2ccccc2C(F)(F)F)c1=O)c1ccc(F)cc1F [Compound 11-711],60,70,60,70,100,90,50,50,90,90,90,90
CC(C)N(C(=O)n1cnn(S(=O)(=O)C(F)(F)F)c1=O)c1ccc(F)cc1F [Compound 11-95],90,60,70,90,70,70,0,0,100,100,100,50
